Assay results as given in ChEMBL document CHEMBL1201862, “PubChem BioAssay data set” (2004).
The source made the active and inactive calls.

Experiments:
Fatty acid synthase [1] = biological target: T1, Fatty acid synthase (Homo sapiens, UniProt P49327); assay: inhibition of human FAS-TE enzyme activity – biochemical, endpoint fluorescence intensity, uHTS hits, dose response (AID 624327); type: functional;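 note: fluorescence from hydrolysis of an O-methyl fluorescein acyl ester substrate by the enzyme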
T1 sequence (P49327 whole entry): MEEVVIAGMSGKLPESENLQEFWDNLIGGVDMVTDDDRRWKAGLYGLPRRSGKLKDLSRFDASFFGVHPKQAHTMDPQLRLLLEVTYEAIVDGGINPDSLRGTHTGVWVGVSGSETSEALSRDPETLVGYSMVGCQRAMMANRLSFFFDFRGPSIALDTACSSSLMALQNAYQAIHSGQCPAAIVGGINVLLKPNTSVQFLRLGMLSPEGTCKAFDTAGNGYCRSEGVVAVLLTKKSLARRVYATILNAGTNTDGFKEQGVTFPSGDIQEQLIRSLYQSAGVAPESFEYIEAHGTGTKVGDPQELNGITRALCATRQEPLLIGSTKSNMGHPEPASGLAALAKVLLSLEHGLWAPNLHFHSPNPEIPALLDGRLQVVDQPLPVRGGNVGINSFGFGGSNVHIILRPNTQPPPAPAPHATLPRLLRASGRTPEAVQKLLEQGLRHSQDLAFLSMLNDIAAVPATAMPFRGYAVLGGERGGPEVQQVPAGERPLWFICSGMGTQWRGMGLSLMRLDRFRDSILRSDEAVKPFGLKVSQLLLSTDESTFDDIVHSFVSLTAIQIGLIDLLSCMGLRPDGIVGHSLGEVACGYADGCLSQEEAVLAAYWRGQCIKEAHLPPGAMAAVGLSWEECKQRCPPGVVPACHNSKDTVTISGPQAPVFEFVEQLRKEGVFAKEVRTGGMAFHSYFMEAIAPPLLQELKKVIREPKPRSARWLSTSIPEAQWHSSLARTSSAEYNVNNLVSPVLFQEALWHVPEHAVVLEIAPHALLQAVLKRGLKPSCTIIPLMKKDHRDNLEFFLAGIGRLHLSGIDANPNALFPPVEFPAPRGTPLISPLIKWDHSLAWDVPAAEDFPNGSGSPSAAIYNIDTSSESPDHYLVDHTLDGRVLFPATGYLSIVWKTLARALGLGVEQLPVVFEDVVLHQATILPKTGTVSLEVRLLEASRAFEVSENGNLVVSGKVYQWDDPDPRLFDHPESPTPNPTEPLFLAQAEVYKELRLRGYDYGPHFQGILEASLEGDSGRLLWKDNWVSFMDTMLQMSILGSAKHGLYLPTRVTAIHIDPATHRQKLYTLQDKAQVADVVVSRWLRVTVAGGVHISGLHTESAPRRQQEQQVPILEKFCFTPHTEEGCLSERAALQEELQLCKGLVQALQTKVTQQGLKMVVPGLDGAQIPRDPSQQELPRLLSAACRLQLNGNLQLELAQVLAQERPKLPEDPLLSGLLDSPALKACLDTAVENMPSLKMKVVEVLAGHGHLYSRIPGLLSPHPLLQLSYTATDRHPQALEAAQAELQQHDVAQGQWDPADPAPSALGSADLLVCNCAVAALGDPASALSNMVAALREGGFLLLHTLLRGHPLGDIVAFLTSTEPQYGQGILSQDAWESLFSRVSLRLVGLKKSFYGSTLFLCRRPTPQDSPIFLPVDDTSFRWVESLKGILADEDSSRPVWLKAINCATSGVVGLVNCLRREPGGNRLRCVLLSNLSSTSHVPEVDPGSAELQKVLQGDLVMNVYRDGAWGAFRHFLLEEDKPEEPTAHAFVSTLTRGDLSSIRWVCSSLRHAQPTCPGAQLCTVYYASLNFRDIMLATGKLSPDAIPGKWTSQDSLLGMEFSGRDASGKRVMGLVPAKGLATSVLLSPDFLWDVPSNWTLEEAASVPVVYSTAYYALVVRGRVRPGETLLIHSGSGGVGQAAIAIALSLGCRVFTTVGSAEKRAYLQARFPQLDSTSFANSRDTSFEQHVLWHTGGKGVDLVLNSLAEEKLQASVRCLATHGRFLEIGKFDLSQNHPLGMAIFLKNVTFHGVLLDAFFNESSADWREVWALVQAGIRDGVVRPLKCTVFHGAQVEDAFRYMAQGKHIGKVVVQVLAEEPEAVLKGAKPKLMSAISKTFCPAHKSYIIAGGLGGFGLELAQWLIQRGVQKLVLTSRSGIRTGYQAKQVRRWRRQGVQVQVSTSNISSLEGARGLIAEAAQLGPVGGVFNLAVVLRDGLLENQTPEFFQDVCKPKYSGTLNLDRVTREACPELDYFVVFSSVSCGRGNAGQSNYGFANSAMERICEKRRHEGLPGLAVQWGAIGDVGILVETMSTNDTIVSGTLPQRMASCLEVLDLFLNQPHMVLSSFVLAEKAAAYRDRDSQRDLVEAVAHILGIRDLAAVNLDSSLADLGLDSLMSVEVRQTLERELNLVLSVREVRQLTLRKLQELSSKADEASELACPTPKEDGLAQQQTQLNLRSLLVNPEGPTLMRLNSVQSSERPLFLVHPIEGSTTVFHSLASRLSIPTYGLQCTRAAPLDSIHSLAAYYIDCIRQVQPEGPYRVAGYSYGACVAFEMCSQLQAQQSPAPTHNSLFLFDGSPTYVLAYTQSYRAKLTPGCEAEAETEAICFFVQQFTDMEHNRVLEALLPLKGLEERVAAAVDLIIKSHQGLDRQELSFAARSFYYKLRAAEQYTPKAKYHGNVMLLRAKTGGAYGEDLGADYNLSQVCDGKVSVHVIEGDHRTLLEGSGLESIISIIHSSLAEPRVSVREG

Fatty acid synthase [2] = biological target: T1, Fatty acid synthase; assay: inhibition of human FAS-TE enzyme activity – biochemical, kinetic fluorescence intensity, dose response (AID 624326); type: functional;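 note: rate of fluorescence rise from hydrolysis of a fluorogenic O-methyl fluorescein ester substrate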
[3] = microbe, parasite or virus in culture; type: functional; conditions: Mycobacterium tuberculosis
[4] = biological target: T2, Replicative DNA helicase DnaB (Mycobacterium tuberculosis, UniProt P9WMR3); assay: DnaB intein splicing inhibitors, dose response, biochemical, cell-free fluorescence (AID 449749); type: functional
T2 sequence (P9WMR3 whole entry): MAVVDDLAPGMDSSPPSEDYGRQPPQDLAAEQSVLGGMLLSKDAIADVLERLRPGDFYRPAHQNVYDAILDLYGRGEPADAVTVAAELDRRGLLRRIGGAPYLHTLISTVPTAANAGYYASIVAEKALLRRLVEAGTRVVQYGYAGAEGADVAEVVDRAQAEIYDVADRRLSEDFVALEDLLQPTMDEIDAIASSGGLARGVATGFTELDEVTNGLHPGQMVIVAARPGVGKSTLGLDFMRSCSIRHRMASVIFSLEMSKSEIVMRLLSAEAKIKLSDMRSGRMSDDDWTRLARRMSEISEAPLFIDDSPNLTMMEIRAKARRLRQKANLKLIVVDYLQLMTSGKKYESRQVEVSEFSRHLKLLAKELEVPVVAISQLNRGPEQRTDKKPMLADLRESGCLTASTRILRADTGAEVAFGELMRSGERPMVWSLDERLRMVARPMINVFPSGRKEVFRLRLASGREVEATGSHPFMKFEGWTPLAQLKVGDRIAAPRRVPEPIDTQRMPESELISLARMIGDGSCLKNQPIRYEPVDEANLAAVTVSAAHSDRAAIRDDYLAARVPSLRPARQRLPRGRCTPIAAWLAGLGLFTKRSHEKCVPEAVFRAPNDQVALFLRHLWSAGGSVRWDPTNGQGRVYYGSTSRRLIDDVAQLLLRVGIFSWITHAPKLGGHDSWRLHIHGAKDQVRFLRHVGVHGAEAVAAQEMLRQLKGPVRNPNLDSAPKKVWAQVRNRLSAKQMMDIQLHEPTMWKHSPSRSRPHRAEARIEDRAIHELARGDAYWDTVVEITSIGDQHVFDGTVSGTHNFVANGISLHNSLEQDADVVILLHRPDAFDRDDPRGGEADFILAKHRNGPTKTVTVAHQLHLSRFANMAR

Protein RecA = biological target: T3, Protein RecA (Mycobacterium tuberculosis, UniProt P9WHJ3); assay: Fluorescence Cell-Free Homogeneous Dose Retest to Identify Inhibitors of RecA-Intein Splicing Activity. [Related pubchem assays (depositor defined):AID2097, AID2223, AID489010, AID492950]; type: functional
T3 sequence (P9WHJ3 whole entry): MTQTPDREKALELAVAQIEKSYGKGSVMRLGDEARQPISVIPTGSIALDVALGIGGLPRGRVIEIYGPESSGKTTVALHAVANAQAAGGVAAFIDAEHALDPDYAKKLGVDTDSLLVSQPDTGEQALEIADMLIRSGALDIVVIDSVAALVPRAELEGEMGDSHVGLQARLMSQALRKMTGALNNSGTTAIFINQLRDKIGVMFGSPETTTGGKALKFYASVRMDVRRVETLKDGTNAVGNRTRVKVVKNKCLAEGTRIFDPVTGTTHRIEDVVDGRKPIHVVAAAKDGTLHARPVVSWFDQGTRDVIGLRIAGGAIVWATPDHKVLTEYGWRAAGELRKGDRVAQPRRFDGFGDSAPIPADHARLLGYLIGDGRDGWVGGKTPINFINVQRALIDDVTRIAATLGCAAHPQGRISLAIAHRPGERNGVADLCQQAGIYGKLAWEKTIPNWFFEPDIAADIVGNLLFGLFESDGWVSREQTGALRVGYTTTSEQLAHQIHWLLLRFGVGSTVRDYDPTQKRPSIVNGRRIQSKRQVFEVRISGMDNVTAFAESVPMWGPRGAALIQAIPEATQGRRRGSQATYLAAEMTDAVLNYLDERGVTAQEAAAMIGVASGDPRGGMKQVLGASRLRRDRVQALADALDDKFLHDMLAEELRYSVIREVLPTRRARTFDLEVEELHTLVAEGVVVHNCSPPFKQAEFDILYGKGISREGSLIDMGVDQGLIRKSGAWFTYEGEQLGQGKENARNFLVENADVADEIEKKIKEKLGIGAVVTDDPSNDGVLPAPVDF

[5] = Luminescence Cell-Based Dose Confirmation HTS to Identify Activators of 5'UTR Stem-Loop Driven Alpha-Synuclein mRNA Translation in H4 Neuroglioblastoma Cells. [Related pubchem assays: 1829 (Project Summary), 1814 (Primary HTS)]; type: functional
[6] = Luminescence Cell-Based Dose Response HTS to Identify Activators of Luciferase Translation or Activity in H4 […] Cells. [Related pubchem assays: 1829 (Project Summary), 1814 (Primary HTS)]; type: functional
H4 = assay: Luminescence Cell-Based Dose Response HTS to Identify Activators of 5'UTR Stem-Loop Driven Prion Protein mRNA Translation in H4 Neuroglioblastoma Cells. [Related pubchem assays: 1829 (Project Summary), 1814 (Primary HTS)]; type: functional; conditions: Homo sapiens
[7] = biological target: Luciferin 4-monooxygenase (Photinus pyralis, UniProt P08659); assay: inhibition of purified Photinus pyralis luciferase – biochemical, luminescence, dose response (AID 1891)
Chain of Luciferin 4-monooxygenase (P08659 whole entry): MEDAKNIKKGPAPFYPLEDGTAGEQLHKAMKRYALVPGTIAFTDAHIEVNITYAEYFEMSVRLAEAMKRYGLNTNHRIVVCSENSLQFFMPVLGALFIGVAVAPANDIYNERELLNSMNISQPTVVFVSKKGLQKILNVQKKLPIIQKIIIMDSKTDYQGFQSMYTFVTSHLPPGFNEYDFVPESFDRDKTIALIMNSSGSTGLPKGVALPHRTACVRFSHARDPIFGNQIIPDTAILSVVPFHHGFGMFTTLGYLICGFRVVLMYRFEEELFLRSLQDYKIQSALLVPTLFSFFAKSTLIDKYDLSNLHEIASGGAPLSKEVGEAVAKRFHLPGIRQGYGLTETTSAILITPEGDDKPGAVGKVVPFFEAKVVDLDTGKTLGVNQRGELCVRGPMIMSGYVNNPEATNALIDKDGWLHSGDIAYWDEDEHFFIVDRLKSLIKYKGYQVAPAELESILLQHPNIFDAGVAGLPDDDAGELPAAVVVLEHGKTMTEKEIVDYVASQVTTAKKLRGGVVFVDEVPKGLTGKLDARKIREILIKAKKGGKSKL

[8] = Luminescence Cell-Based Dose Confirmation HTS to Identify Inhibitors of Platelet Dense Granule Release. [Related pubchem assays: 1663 (Primary HTS), 1678 (Summary of Project)]; type: functional
[9] = viability of PTEN-deleted HCT116 cells – cell-based, HCT116 PTEN knockout, dose response (AID 1047); type: functional;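 note: HCT116 colon tumor cells with PTEN knocked out; cells exposed to compound for 60 hours before readout; potency for loss of cell viability measured by luminescence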
[10] = viability of HCT116 lacking mutant beta-catenin – cell-based, human colon tumor, dose response (AID 1045); type: functional;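 note: HCT116 colon tumor cells with beta catenin knocked out; cells exposed to compound for 60 hours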
Cytochrome P450 3A4 = Cytochrome P450 3A4 (Homo sapiens, UniProt P08684);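 note: CYP3A4 tested as one member of a cytochrome P450 panel screen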
Chain of Cytochrome P450 3A4 (P08684 whole entry): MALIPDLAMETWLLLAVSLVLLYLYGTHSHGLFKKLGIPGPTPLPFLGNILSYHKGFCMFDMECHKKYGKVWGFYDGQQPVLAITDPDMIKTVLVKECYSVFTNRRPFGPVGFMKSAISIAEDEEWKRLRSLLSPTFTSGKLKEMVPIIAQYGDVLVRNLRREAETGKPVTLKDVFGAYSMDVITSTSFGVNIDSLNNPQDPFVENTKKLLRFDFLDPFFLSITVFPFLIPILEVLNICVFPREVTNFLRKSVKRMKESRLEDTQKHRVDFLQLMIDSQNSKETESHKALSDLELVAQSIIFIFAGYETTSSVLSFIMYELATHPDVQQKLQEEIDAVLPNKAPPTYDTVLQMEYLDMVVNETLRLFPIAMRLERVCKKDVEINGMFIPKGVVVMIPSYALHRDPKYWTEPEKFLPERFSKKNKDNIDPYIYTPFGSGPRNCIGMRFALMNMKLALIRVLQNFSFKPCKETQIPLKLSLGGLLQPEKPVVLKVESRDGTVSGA

Cytochrome P450 2C9 [11] = biological target: T4, Cytochrome P450 2C9 (Homo sapiens, UniProt P11712)
T4 sequence (P11712 whole entry): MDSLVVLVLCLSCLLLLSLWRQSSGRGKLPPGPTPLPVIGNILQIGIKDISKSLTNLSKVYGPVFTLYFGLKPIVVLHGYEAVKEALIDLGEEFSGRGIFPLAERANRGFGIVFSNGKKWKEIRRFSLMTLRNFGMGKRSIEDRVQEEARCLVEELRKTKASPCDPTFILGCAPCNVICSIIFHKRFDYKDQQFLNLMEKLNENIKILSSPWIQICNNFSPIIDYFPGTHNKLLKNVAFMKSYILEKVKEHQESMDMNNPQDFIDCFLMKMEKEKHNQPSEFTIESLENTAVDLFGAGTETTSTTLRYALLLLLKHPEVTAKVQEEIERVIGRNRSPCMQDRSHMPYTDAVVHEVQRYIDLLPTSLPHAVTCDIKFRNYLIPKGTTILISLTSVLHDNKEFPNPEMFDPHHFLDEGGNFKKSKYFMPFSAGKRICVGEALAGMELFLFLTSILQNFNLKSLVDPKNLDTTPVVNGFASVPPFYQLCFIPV

[12] = Luminescence Cell-Based Dose Retest to Confirm Inhibitors of Cancer Stem Cells. [Related pubchem assays (depositor defined):AID2717, AID2721]; type: functional; conditions: Homo sapiens
Cytochrome P450 2D6 = Cytochrome P450 2D6 (Homo sapiens, UniProt P10635);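 note: CYP2D6 member of a cytochrome P450 panel assay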
Chain of Cytochrome P450 2D6 (P10635 whole entry): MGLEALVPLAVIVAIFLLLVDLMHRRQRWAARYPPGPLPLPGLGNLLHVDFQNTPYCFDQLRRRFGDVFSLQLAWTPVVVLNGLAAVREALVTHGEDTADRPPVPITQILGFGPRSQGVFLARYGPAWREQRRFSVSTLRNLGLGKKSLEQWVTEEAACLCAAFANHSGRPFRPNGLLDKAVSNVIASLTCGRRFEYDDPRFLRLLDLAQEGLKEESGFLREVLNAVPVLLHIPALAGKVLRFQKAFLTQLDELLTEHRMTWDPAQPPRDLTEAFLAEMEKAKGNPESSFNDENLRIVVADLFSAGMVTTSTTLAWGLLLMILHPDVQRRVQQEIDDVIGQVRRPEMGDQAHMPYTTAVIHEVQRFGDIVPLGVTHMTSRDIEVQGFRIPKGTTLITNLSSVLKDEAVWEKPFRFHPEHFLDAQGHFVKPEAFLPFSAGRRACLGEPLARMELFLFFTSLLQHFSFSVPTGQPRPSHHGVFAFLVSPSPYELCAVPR

Cytochrome P450 2C19 = Cytochrome P450 2C19 (Homo sapiens, UniProt P33261); assay: Cytochrome panel assay with activity outcomes. Panel member name: p450-cyp2c19 Compounds with AC50 equal or less than 10 uM are considered active; type: functional; conditions: read-out: AC50
Chain of Cytochrome P450 2C19 (P33261 whole entry): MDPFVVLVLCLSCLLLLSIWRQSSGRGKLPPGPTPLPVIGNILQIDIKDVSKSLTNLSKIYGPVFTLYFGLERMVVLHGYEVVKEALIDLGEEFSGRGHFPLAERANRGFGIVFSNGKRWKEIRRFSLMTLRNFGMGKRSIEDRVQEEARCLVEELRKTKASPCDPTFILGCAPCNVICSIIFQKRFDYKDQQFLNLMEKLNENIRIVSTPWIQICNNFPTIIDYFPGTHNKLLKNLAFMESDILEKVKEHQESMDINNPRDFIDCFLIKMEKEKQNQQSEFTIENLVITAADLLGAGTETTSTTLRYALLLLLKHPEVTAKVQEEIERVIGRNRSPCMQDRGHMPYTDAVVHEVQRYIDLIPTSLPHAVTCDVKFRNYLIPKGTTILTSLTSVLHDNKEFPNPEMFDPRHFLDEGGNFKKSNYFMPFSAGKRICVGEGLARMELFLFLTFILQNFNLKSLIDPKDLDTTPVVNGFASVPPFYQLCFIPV

Cytochrome P450 2C9 [13] = biological target: T4, Cytochrome P450 2C9; remark: listed apart in the source

| Structure (SMILES) | IC50 (Fatty acid synthase [1]) | IC50 (Fatty acid synthase [2]) | CC50 [3] | AC50 (Cytochrome P450 3A4) | other results |
| --- | --- | --- | --- | --- | --- |
| O=C(O)CC(NC(=O)CC(c1ccccc1)c1ccccc1)c1cccc([N+](=O)[O-])c1 (stereo unspecified) | 7.88 µM (active) | 9.88 µM (active) |  |  |  |
| CC(C)(C)c1csc(NC(=O)c2c(F)c(F)c(F)c(F)c2F)n1 |  |  | 34 µM (active) |  | AC50 [4]: 26 µM (active); EC50 (Protein RecA): 18.4 µM (active) |
| Cc1ccc2[nH]c(/C(C#N)=C/c3c[nH]nc3-c3ccc(F)cc3)nc2c1 |  |  | 26.9 µM (active) |  | EC50 [5]: > 120 µM (not active); EC50 [6]: 5.96 µM (active); EC50 (H4): > 120 µM (not active); EC50 [7]: > 112 µM (not active); EC50 [8]: 46.2 µM (active); EC50 [9]: 7.74 µM (active); EC50 [10]: 9.64 µM (active) |
| COc1ccc(S(=O)(=O)N2CCC(C(=O)NCC3CCCO3)CC2)cc1C (stereo unspecified) |  |  |  | 15.8 µM (inconclusive) | AC50 (Cytochrome P450 2C9 [11]): inconclusive |
| Cc1cccc(COCC(CC(C)C)N2CCN(C(=O)c3ccc(C(C)(C)C)cc3)CCC2=O)c1 (stereo unspecified) | 8.21 µM (active) | 6.11 µM (active) |  |  |  |
| CC(C)c1ccc2c(c1)c(SC(C)(C)C)c(CC(C)(C)C(=O)O)n2Cc1ccc(Cl)cc1 | 10.1 µM (active) | 8.48 µM (active) |  |  | AC50 [12]: 1.58 µM (active) |
| Clc1ccc(CNc2nc(CN3CCOCC3)nc3scc(-c4ccccc4)c23)cc1 |  |  | > 40 µM (active) |  |  |
| O=C(Cc1ccccc1[N+](=O)[O-])NCc1ccccc1Cl |  |  |  | 15.8 µM (inconclusive) | AC50 (Cytochrome P450 2D6): 15.8 µM (inconclusive); AC50 (Cytochrome P450 2C9 [11]): inconclusive |
| O=C(Nc1ccccc1[N+](=O)[O-])OCC=Cc1ccccc1 | 8.17 µM (active) | 6.3 µM (active) |  |  |  |
| O=C1Nc2cc(Cl)c(Cl)cc2N(O)N1c1ccc(Cl)c(Cl)c1 | 6.59 µM (active) | 12 µM (active) |  | 39.8 µM (inconclusive) | AC50 (Cytochrome P450 2C19): 28.2 µM (inconclusive); AC50 (Cytochrome P450 2C9 [13]): 3.98 µM (inconclusive) |
